The source of these data is ChEMBL document CHEMBL1156946, “Synthesis and SAR of derivatives based on 2-biarylethylimidazole as bombesin receptor subtype-3 (BRS-3) agonists for the treatment of obesity” (Bioorg Med Chem Lett, 2010).

Structures are written as SMILES.

The target in data set [1] is T1, Bombesin receptor subtype-3 (Homo sapiens, UniProt P32247).
T1 sequence (P32247 whole entry): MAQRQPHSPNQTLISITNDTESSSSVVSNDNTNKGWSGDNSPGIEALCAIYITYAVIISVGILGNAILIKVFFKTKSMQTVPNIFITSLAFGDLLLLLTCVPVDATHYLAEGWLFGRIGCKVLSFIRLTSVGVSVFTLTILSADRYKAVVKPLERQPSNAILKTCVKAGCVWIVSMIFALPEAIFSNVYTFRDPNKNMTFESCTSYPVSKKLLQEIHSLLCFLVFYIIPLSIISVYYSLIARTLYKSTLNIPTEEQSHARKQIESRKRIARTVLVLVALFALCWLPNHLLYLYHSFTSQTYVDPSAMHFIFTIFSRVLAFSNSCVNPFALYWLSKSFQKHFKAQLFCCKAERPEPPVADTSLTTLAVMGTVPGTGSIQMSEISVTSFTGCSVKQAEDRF
Description: biochemical. It is filed as cell-based, CHO.
Description: Displacement of [125I]D-Tyr6-betaAla11-Phe13-Nle14-bombesin from human BRS-3 expressed in NFAT-CHO cells after 2 hrs by scintillation counting

Data set [2] has as its target T1, Bombesin receptor subtype-3. In words: Agonist activity at human BRS-3 expressed in HEK293 cells coexpressing AEQ over 10 mins by aequorin bioluminescence assay relative to D-Tyr6-betaAla11-Phe13-Nle14-bombesin. It is filed as functional, cell-based.
Data set [3] concerns the target T2, Bombesin receptor subtype-3 (Mus musculus, UniProt O54798).
T2 sequence (O54798 whole entry): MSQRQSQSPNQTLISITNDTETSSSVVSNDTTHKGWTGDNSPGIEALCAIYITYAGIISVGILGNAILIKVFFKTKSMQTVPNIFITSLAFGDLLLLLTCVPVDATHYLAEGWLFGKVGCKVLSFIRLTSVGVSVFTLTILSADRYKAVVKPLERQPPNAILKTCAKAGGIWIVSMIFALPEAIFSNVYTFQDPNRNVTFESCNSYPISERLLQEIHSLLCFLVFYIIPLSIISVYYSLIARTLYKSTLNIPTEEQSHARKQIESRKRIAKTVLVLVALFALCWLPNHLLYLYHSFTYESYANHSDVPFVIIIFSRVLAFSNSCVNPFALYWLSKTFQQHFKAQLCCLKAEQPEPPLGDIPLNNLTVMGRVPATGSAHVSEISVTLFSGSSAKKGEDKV
In words: Agonist activity at mouse BRS-3 expressed in HEK293 cells coexpressing AEQ over 10 mins by aequorin bioluminescence assay. The data set is classed as functional, cell-based.

Data set [4] can be described thus: Drug level in rat brain at 1 mg/kg, iv after 1 hr. The data set is classed as ADME, organism-based. Also noted: dose 1 mg/kg, route intravenous. The note with it: read-out: Drug uptake.
Data set [5] can be described thus: Ratio of drug level in rat brain to plasma at 1 mg/kg, iv after 1 hr. It is filed as ADME, organism-based. Also noted: dose 1 mg/kg, route intravenous.
Data set [6] addresses T2, Bombesin receptor subtype-3. In words: Agonist activity at mouse BRS-3 expressed in HEK293 cells coexpressing AEQ over 10 mins by aequorin bioluminescence assay relative to D-Tyr6-betaAla11-Phe13-Nle14-bombesin. It is filed as functional, cell-based.
Data set [7] deals with T1, Bombesin receptor subtype-3. In words: Agonist activity at human BRS-3 expressed in HEK293 cells coexpressing AEQ over 10 mins by aequorin bioluminescence assay. It is filed as functional, cell-based.
The nature of data set [8]: Drug level in rat plasma at 1 mg/kg, iv after 1 hr. It is filed as ADME, organism-based. Also noted: dose 1 mg/kg, route intravenous.

For the compound `CCC(C)(C)Cc1cnc(CCc2ccc(-c3cnsc3)cc2)[nH]1`, half-maximal inhibition in data set [1] (IC50) required 10 nM. Further, the values for the Emax in data set [2] and in data set [6] were 100% and 119%, respectively. Besides, the results for the EC50 in data set [3] and in data set [7] were 6.9 nM and 44 nM, respectively. In addition, the concentration at 1 h in data set [4] amounted to 230 nM; in data set [8], 540 nM. Further, the Kp (as a rule, tissue or fluid exposure divided by exposure in the circulation) at 1 h in data set [5] came to 0.42.

Consider `CCC(C)(C)Cc1cnc(CCc2ccc(-c3csnn3)cc2)[nH]1`, for which the IC50 (as a rule, the concentration needed to halve the response being measured) in data set [1] stood at 45 nM. Further, the Emax – broadly, the greatest response seen or fitted, relative to the assay's reference – in data set [2] is 104%; in data set [6] it was 109%. For the same compound, the EC50 (as a rule, the concentration at which the effect is half-maximal) is 11 nM in data set [3] and 538 nM in data set [7].

`CCC(C)(C)Cc1c[nH]c(CCc2ccc(-c3cnccn3)cc2)n1` displayed an IC50 in data set [1] of 51 nM. In addition, the Emax is 100% in data set [2] and 107% in data set [6]. Besides, the 50% effective concentration (EC50) in data set [3] stood at 11 nM; in data set [7], 431 nM.

On to `CCC(C)(C)Cc1c[nH]c(CCc2ccc(-n3cccn3)cc2)n1`, for which the maximal effect (Emax) worked out at 106% in data set [2] and 113% in data set [6]. Also, the EC50 in data set [3] was found to be 9 nM; in data set [7], 135 nM. In addition, the values for the concentration at 1 h in data set [4] and in data set [8] were 20 nM and 30 nM, respectively. Also, the Kp at 1 h in data set [5] is 0.67.

For `CCC(C)(C)Cc1cnc(CCc2ccc(-n3cncn3)cc2)[nH]1`, the 50% inhibitory concentration (IC50) in data set [1] turned out to be 340 nM. Moreover, the Emax stood at 89% in data set [2] and 121% in data set [6]. Besides, the results for the EC50 in data set [3] and in data set [7] were 12 nM and 570 nM, respectively. The concentration at 1 h worked out at 80 nM in data set [4] and 200 nM in data set [8]. For the same compound, in data set [5], the Kp at 1 h stood at 0.4.

In data set [1], `CCC(C)(C)Cc1cnc(CCc2ccc(-n3ccnn3)cc2)[nH]1` returned a 50% inhibitory concentration (IC50) of 390 nM. Besides, the Emax in data set [2] is 93%; in data set [6] it was 111%. Moreover, the results for the EC50 in data set [3] and in data set [7] were 57 nM and 641 nM, respectively.

The compound `CCC(C)(C)Cc1c[nH]c(CCc2ccc(-c3ccccc3C(=O)O)cc2)n1` yielded an IC50 in data set [1] of 11 nM. Moreover, the figures for the maximal response (Emax) in data set [2] and in data set [6] were 101% and 94%, respectively.

`CCC(C)(C)Cc1cnc(CCc2ccc(-c3cccnc3C(=O)O)cc2)[nH]1` showed an IC50 in data set [1] of 560 nM. Moreover, the Emax in data set [2] was 95%; in data set [6], 97%. In addition, the EC50 in data set [3] stood at 14 nM; in data set [7], 1260 nM.

`CCC(C)(C)Cc1c[nH]c(CCc2ccc(-c3cccc(C(=O)O)n3)cc2)n1` returned an IC50 in data set [1] of 2820 nM. The Emax in data set [2] was 15%; in data set [6], 90%. The EC50 in data set [3] was found to be 305 nM; in data set [7] it was 5230 nM.

As for `c1ccc(-c2ccc(CCc3nc(CC4CCCC4)c[nH]3)cc2)nc1`, in data set [1], half-maximal inhibition (IC50) required 177 nM. The Emax in data set [2] was determined as 98%; in data set [6], 103%. Also, the figures for the EC50 in data set [3] and in data set [7] were 22 nM and 425 nM, respectively. In addition, the concentration at 1 h in data set [4] was 30 nM; in data set [8], 39 nM. Also, in data set [5], the Kp at 1 h stood at 0.77.

The compound `CCC(C)(C)Cc1cnc(CCc2ccc(-c3cccnc3)cc2)[nH]1` displayed an IC50 in data set [1] of 7.5 nM. In addition, the results for the Emax in data set [2] and in data set [6] were 98% and 97%, respectively. Besides, the EC50 came to 4.3 nM in data set [3] and 131 nM in data set [7].

`CCC(C)(C)Cc1c[nH]c(CCc2ccc(-n3ncnn3)cc2)n1` registered an IC50 in data set [1] of 205 nM. Besides, the Emax in data set [2] came to 89%; in data set [6], 99%. The results for the EC50 in data set [3] and in data set [7] were 25 nM and 422 nM, respectively.

`CCC(C)(C)Cc1cnc(CCc2ccc(N3CCCCC3)cc2)[nH]1` had an IC50 in data set [1] of 28 nM. For the same compound, the Emax was 108% in data set [2] and 133% in data set [6]. Further, the values for the EC50 in data set [3] and in data set [7] were 28 nM and 171 nM, respectively.

The compound `CCC(C)(C)Cc1cnc(CCc2ccc(-c3ccncc3)cc2)[nH]1` showed an IC50 in data set [1] of 101 nM. Also, the values for the Emax in data set [2] and in data set [6] were 95% and 103%, respectively. Moreover, the concentration for a half-maximal effect (EC50) came to 15 nM in data set [3] and 305 nM in data set [7].

On to `CCC(C)(C)Cc1c[nH]c(CCc2ccc(-c3cccc(C)n3)cc2)n1`, for which the Emax in data set [2] stood at 102%; in data set [6], 106%. Besides, the EC50 in data set [3] was 19 nM; in data set [7], 105 nM.

Take `CCC(C)(C)Cc1c[nH]c(CCc2ccc(-c3cccc(N)n3)cc2)n1`: in data set [1], the 50% inhibitory concentration (IC50) is 7.3 nM. The Emax in data set [2] worked out at 97%; in data set [6], 119%. Also, the EC50 worked out at 3.9 nM in data set [3] and 37 nM in data set [7].

On to `O=C(O)c1cc(F)c(F)cc1-c1ccc(CCc2nc(CC3CCCCC3)c[nH]2)cc1`, for which, in data set [1], half-maximal inhibition (IC50) required 36 nM. Moreover, the Emax was determined as 103% in data set [2] and 96% in data set [6]. The 50% effective concentration (EC50) in data set [3] is 4.7 nM; in data set [7], 63 nM.

With `CCC(C)(C)Cc1c[nH]c(CCc2ccc(-c3cccc(O)n3)cc2)n1`, in data set [1], 51 nM corresponded to half-maximal inhibition (IC50). Also, the Emax in data set [2] worked out at 100%; in data set [6], 91%. Moreover, the results for the EC50 in data set [3] and in data set [7] were 11 nM and 169 nM, respectively.

In data set [1], `CCC(C)(C)Cc1cnc(CCc2ccc(-c3cccc(C#N)n3)cc2)[nH]1` yielded an IC50 of 140 nM. Also, the maximal response (Emax) in data set [2] was determined as 95%; in data set [6], 115%. Further, the EC50 in data set [3] came out at 26 nM; in data set [7] it was 193 nM.

In data set [1], `CCC(C)(C)Cc1cnc(CCc2ccc(-c3ccc(F)cn3)cc2)[nH]1` displayed an IC50 of 19 nM. The Emax in data set [2] stood at 97%; in data set [6], 105%. For the same compound, the EC50 in data set [3] was determined as 16 nM; in data set [7] it was 66 nM.

In data set [1], `CCC(C)(C)Cc1c[nH]c(CCc2ccc(-c3ccns3)cc2)n1` yielded an IC50 of 11 nM. Moreover, the Emax in data set [2] worked out at 102%; in data set [6], 103%. The figures for the 50% effective concentration (EC50) in data set [3] and in data set [7] were 3.1 nM and 63 nM, respectively.
